Test results as given in ChEMBL document CHEMBL1142222, “A-803467, a potent and selective Nav1.8 sodium channel blocker, attenuates neuropathic and inflammatory pain in the rat” (Proc Natl Acad Sci U S A, 2007).

Tests used:
[1] = target: Kappa-type opioid receptor (Homo sapiens, UniProt P41145); assay: Displacement of [3H]U-69593 from opioid kappa receptor
[2] = target: Sodium channel protein type 3 subunit alpha (Homo sapiens, UniProt Q9NY46); assay: Inhibition of human Nav1.3 channel expressed in HEK293 cells at -60 mV by patch clamp method; format: cell-based
Sequence of Sodium channel protein type 3 subunit alpha (Q9NY46 whole entry): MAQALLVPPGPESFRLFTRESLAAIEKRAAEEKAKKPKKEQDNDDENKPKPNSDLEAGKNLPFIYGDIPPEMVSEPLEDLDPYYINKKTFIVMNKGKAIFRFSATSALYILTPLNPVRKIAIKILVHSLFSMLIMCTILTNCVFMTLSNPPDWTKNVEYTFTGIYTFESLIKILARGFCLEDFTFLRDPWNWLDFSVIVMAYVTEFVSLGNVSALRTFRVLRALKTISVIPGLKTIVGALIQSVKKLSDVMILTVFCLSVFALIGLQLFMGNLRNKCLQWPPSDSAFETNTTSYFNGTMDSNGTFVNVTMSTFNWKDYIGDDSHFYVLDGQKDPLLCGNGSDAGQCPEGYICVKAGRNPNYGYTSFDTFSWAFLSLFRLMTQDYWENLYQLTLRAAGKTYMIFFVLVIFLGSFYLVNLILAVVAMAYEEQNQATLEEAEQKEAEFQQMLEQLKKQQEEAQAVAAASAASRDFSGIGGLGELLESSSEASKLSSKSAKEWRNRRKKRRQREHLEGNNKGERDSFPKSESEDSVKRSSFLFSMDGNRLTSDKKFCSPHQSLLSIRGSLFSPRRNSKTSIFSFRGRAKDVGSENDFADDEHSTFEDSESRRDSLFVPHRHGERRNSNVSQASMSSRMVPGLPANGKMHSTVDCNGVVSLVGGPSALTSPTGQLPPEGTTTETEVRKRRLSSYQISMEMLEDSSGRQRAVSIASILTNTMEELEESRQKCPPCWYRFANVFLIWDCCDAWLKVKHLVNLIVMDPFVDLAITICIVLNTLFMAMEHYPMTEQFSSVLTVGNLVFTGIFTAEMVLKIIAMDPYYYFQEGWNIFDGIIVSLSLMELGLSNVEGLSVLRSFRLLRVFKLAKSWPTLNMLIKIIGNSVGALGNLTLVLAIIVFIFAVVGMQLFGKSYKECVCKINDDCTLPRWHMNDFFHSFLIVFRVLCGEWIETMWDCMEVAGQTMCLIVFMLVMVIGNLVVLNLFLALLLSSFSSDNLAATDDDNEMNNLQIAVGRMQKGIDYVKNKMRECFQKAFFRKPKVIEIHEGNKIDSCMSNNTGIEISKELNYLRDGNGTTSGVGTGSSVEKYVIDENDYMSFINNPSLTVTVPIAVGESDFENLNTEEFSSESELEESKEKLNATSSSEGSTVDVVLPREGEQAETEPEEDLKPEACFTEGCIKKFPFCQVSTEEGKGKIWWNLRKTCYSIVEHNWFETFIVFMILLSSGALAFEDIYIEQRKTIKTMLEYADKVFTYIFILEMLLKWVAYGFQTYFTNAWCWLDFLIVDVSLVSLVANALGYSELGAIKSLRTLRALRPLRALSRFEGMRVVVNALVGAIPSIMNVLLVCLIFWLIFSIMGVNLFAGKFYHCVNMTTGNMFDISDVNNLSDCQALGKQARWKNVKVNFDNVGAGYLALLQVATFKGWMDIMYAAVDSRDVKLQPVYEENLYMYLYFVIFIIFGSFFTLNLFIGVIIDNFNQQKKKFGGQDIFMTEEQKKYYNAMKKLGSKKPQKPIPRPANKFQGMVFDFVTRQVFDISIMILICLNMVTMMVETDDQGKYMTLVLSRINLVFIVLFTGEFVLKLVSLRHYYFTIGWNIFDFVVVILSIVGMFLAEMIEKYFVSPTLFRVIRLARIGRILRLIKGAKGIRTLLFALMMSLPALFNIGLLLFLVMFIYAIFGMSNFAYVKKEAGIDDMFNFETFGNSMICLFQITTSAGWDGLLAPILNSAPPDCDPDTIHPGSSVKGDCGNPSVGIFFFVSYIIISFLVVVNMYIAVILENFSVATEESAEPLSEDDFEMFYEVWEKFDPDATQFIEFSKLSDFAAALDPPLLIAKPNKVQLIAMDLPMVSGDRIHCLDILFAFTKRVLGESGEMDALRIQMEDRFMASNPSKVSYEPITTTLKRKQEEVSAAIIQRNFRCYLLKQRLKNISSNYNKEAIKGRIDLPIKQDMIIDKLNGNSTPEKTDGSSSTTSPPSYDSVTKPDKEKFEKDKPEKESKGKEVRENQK

Nociceptin receptor = Nociceptin receptor (Homo sapiens, UniProt P41146); assay: Displacement of [3H]nociceptin from ORL1 receptor
Sequence of Nociceptin receptor (P41146 whole entry): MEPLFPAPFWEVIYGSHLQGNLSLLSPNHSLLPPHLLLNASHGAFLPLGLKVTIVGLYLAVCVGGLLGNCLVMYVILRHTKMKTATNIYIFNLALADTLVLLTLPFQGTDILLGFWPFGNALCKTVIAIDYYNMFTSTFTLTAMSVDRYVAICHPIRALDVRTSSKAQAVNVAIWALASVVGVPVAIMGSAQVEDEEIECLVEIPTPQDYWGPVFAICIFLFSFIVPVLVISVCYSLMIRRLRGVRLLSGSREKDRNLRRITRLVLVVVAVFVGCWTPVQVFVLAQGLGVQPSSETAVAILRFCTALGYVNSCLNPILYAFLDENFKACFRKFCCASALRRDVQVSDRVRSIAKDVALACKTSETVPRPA

[3] = Elimination half life in iv dosed rat; format: ADME, organism-based; conditions: in vivo
ADRB1 = ADRB1 (Homo sapiens, UniProt P08588); assay: Displacement of [3H](-)CGP-12177 from adrenergic beta-1 receptor
Sequence of ADRB1 (P08588 whole entry, looked up): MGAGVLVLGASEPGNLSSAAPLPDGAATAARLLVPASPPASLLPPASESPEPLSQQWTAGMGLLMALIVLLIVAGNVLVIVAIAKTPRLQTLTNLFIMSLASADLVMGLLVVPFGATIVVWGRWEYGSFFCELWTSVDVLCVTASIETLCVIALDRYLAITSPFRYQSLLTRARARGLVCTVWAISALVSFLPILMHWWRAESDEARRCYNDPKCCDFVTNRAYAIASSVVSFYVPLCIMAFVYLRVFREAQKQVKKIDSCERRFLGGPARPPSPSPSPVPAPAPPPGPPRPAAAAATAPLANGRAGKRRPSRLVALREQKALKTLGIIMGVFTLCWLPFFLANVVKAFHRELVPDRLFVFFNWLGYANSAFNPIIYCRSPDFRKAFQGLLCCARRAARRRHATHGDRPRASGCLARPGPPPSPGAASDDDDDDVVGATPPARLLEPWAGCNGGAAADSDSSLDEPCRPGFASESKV

Rattus norvegicus [4] = assay: Motor effect in rat assessed as latency to fall at 300 mg/kg, ip by edge balance test; format: functional; conditions: route intraperitoneal
[5] = Displacement of [3H]prazosin from adrenergic alpha-1 receptor
Rattus norvegicus [6] = assay: Analgesic activity in ip dosed rat complete Freund's adjuvant-induced mechanical hyperalgesia model assessed as paw withdrawal latency after 2 days; format: functional; conditions: 48 h
[7] = Tmax in rat at 10 mg/kg, ip; format: ADME, organism-based; set-up: dose 10 mg/kg, route intraperitoneal; conditions: in vivo
Rattus norvegicus [8] = assay: Analgesic activity in rat L5/L6 spinal nerve ligation-induced neuropathic pain model at 100 mg/kg, ip; format: functional; conditions: route intraperitoneal
Rattus norvegicus [9] = assay: Analgesic activity in rat complete Freund's adjuvant-induced thermal hyperalgesia model assessed as paw withdrawal latency at 100 mg/kg, ip after 2 days; format: functional; conditions: route intraperitoneal

Sequence of Kappa-type opioid receptor (P41145 whole entry): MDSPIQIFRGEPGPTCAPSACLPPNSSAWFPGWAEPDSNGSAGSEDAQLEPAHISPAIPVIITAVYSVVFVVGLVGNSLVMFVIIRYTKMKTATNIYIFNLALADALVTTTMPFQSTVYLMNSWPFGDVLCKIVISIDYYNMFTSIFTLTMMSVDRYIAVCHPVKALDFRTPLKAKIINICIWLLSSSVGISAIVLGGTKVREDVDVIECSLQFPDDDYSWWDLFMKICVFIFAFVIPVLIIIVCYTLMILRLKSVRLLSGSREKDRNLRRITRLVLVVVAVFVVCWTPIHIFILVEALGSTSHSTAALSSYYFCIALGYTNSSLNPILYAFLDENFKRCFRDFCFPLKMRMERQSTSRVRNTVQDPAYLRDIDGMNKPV

Structure (SMILES): COc1cc(NC(=O)c2ccc(-c3ccc(Cl)cc3)o2)cc(OC)c1
- IC50 [1]: > 10 µM
- IC50 [2]: 2.45 µM
- IC50 (Nociceptin receptor): > 10 µM
- half-life [3]: 4.9 h
- IC50 (ADRB1): > 10 µM
- Activity (Rattus norvegicus [4]): 0%
- IC50 [5]: > 10 µM
- ED50 (Rattus norvegicus [6]): > 100 mg/kg
- Tmax [7]: 1.6 h
- Activity (Rattus norvegicus [8]): 70%
- Activity (Rattus norvegicus [9]): 64%
